Source: US12297285B2 (Orna Therapeutics, Inc., priority 2022, dated 2025)

How the values were obtained:
Assay in all cases: IRES screening, Gaussia luciferase from LNP-oRNA (Table 27)
Conditions in all cases: Gaussia luciferase luminescence in supernatant 48 hours after LNP-oRNA transfection, normalized to control (caprine kobuvirus IRES)
[1] = test system: activated primary human T cells
[2] = test system: primary human hepatocytes
[3] = test system: primary human skeletal myotubes

| Compound | [Mod] T Fold Change [1] [Fold Change] | [Mod] PHH Fold Change [2] [Fold Change] | [Mod] Fold Change Myo [3] [Fold Change] |
| --- | --- | --- | --- |
| CC(C)CCCC(C)CC(=O)OCCCCCCN(CCCCCCOC(=O)CC(C)CCCC(C)C)CCCn1ccnc1 (stereo not drawn) [Lipid 10a-122] | 0.8876 | 0.8322 | 0.3886 |
| Cc1nccn1CCCN(CCCCCCOC(=O)CC(C)CCCC(C)C)CCCCCCOC(=O)CC(C)CCCC(C)C (stereo not drawn) [Lipid 10a-123] | 0.03011 | 0.638 | 0.03971 |
| CC(C)=CCCC(C)CC(=O)OCCCCCCN(CCCCCCOC(=O)CC(C)CCC=C(C)C)CCCn1ccnc1C (stereo not drawn) [Lipid 10a-125] | 0.6418 | 0.6492 | 0.3827 |
| CC(C)=CCC/C(C)=C/C(=O)OCCCCCCN(CCCCCCOC(=O)/C=C(\C)CCC=C(C)C)CCCn1ccnc1 [Lipid 10a-126] | 0.06647 | 0.6456 | 0.05793 |
| CC(C)=CCC/C(C)=C/C(=O)OCCCCCCN(CCCCCCOC(=O)/C=C(\C)CCC=C(C)C)CCCn1ccnc1C [Lipid 10a-127] | 0.6858 | 0.6745 | 0.2936 |
| CCCCCCCCC(CCCCCC)C(=O)OCCCCCCN(CCCCCCOC(=O)C(CCCCCC)CCCCCCCC)Cc1nccn1C (stereo not drawn) [Lipid 10a-128] | 0.5837 | 1.021 | 0.4893 |
| CCCCCCCCC(CCCCCC)C(=O)OCCCCCCN(CCCCCCOC(=O)C(CCCCCC)CCCCCCCC)CCn1ccnc1 (stereo not drawn) [Lipid 10a-129] | 0.08945 | 0.6689 | 0.05369 |
| CCCCCCCCC(CCCCCC)C(=O)OCCCCCCN(CCCCCCOC(=O)C(CCCCCC)CCCCCCCC)CCC(C)n1ccnc1 (stereo not drawn) [Lipid 10a-130] | 0.06076 | 0.5728 | 0.04058 |
| CCCCCCCCCOC(=O)CCCCCCCN(CCCCCCCC(=O)OC(CCCCCCCC)CCCCCCCC)CCC(C)n1ccnc1 (stereo not drawn) [Lipid 10a-131] | 0.03336 | 0.5348 | 0.03951 |
| CCCCCCCCCOC(=O)CCCCCCCN(CCCCCCCC(=O)OC(CCCCCCCC)CCCCCCCC)CCn1ccnc1 [Lipid 10a-132] | 0.03118 | 0.5643 | 0.03998 |
| CCCCCCCCCOC(=O)CCCCCCCN(CCCCCCCC(=O)OC(CCCCCCCC)CCCCCCCC)Cc1nccn1C [Lipid 10a-133] | 0.03004 | 0.541 | 0.03933 |
| CCCCCCCCCCCCCCN(CCC(C)n1ccnc1)C(CCCCCCCCC(=O)OCC(CCCC)CCCCCC)CCCCCCCCC(=O)OCC(CCCC)CCCCCC (stereo not drawn) [Lipid 10a-134] | 0.05294 | 0.4673 | 0.04662 |
| CCCCCCCCCCCCCCN(Cc1nccn1C)C(CCCCCCCCC(=O)OCC(CCCC)CCCCCC)CCCCCCCCC(=O)OCC(CCCC)CCCCCC (stereo not drawn) [Lipid 10a-136] | 0.04232 | 0.4286 | 0.04786 |
| CCCCCCCCC(CC)OC(=O)CCCCCCCN(CCCCCCCC(=O)OC(CCCCCCCC)CCCCCCCC)CCCn1ccnc1C (stereo not drawn) [Lipid 10a-138] | 0.6378 | 0.6157 | 0.3723 |
| CCCCCCCCC(CCCCCC)C(=O)OCCCCCCN(CCCCCCOC(=O)C(CCCCCC)CCCCCCCC)CCn1ccnc1C (stereo not drawn) [Lipid 10a-139] | 0.09732 | 0.5206 | 0.0597 |
| CCCCC/C=C\C/C=C\CCCCCCCC(=O)OCC(COC(=O)CCC(OCCCCCCCC)OCCCCCCCC)COC(=O)OCCCn1ccnc1 (stereo not drawn) [Lipid 10a-140] | 0.3995 | 0.7154 | 0.1601 |
| CCCCC/C=C\C/C=C\CCCCCCCC(=O)OCC(COC(=O)CCC(OCCCCCCCC)OCCCCCCCC)COC(=O)OCCCn1ccnc1C (stereo not drawn) [Lipid 10a-141] | 0.03106 | 0.547 | 0.04025 |
| CCCCCCCCCN(CCCn1ccnc1)C(CCCCCCCCC(=O)OCC(CCCC)CCCCCC)CCCCCCCCC(=O)OCC(CCCC)CCCCCC (stereo not drawn) [Lipid 10a-142] | 0.02743 | 0.468 | 0.03852 |
| CCCCCCCCC(CCCCCC)OCCOC(=O)CCN(CCCn1ccnc1C)CCC(=O)OCCOC(CCCCCC)CCCCCCCC (stereo not drawn) [Lipid 10a-143] | 0.03265 | 0.4209 | 0.03901 |
| CCCCCCCCCN(CCn1ccnc1C)C(CCCCCCCCC(=O)OCC(CCCC)CCCCCC)CCCCCCCCC(=O)OCC(CCCC)CCCCCC (stereo not drawn) [Lipid 10a-145] | 0.0263 | 0.6359 | 0.03927 |
| CCCCCCCCCN(CCn1ccnc1)C(CCCCCCCCC(=O)OCC(CCCC)CCCCCC)CCCCCCCCC(=O)OCC(CCCC)CCCCCC (stereo not drawn) [Lipid 10a-146] | 0.03465 | 0.5873 | 0.04323 |
| CCCCCCCCCN(CCCCn1ccnc1C)C(CCCCCCCCC(=O)OCC(CCCC)CCCCCC)CCCCCCCCC(=O)OCC(CCCC)CCCCCC (stereo not drawn) [Lipid 10a-147] | 0.03662 | 0.5594 | 0.04264 |
| CCCCCCCCCN(CCCCn1ccnc1)C(CCCCCCCCC(=O)OCC(CCCC)CCCCCC)CCCCCCCCC(=O)OCC(CCCC)CCCCCC (stereo not drawn) [Lipid 10a-148] | 0.02909 | 0.7368 | 0.03913 |
| CCCCCCCCC(CCCCCC)C(=O)OCCCCCCN(CCCn1ccnc1C)CC(O)CCCCOC(=O)C(CCCCCC)CCCCCCCC (stereo not drawn) [Lipid 10a-149] | 0.02893 | 0.7118 | 0.03919 |
| CCCCCCCCCCCCC(O)CN(CCCCCCCC(=O)OC(CCCCCCCC)CCCCCCCC)CCCn1ccnc1C (stereo not drawn) [Lipid 10a-150] | 0.02705 | 0.5147 | 0.03864 |
